Reference: patent publication US10532040B2, “Methods of treating cancer with herbacetin” (REGENTS OF THE UNIVERSITY OF MINNESOTA, priority 2011, dated 2020)
Entries after “also recorded” stand apart in the source; their conditions may differ.

Assays:
[1] = test system: APC^min+ mice; test: APC^min+ mouse model, 8 weeks; assay type: in vivo
Text: Male C57BL/6J^(Min/+) mice were obtained from Jackson Laboratory and maintained under “specific pathogen-free” conditions according to the guidelines established by the University of Minnesota Institutional Animal Care and Use Committee. APC^min+ male mice were bred with C57BL/6J APC wildtype female mice. The progeny were genotyped by PCR assay to determine whether they were heterozygous for the min allele or were homozygous wildtype. APC^min+ male or female progeny were randomly assigned to groups after weaning at 3 weeks. Mice (5˜6 weeks old) were divided into 4 groups: 1) untreated vehicle group (n=12); 2) mice treated with 0.4 mg herbacetin/kg of body weight (n=13); 3) mice treated with 2 mg herbacetin/kg of body weight (n=13); and mice treated with 100 mg difluoromethylornithine (DFMO)/kg of body weight (n=10). Herbacetin, DFMO, or vehicle was injected 3 times a week for 8 weeks.

[2] = test system: JB6 mouse epidermal skin cells; test: proliferation and colony formation of JB6 mouse epidermal skin cells; assay type: cell-based; details: preliminary data
Description: (§1) FIGS. 3A-3H. Anticancer effect of herbacetin. (a) The effect of herbacetin on ODC activity in colon cancer cell lines was measured as the release of CO2 from L-[1-C^14] ornithine. […] (b) The effect of herbacetin and DFMO on the growth of colon cancer cells and (c) TPA-induced JB6 cell growth was compared. Cells were incubated for 72 h and growth was estimated using the MTS assay. (d) The effect of herbacetin on anchorage independent HCT116 colon cancer cell growth and (e) TPA-induced JB6 cell transformation was assessed. Cells were incubated for 2 weeks and then colonies were counted using a microscope and the Image-Pro PLUS (v.6) computer software program. The effect of herbacetin on AP-1 reporter activity in (f) HCT116 colon cancer cells and (g) TPA-induced AP-1 reporter activity in JB6 mouse epidermal cells was analyzed using the substrates included in the reporter assay system. Data are represented as means±S.D. of triplicate values from three independent experiments and the asterisk (*) indicates a significant (p<0.05) effect of herbacetin or DFMO compared to untreated or TPA-treated controls. (h) The effect of herbacetin on the phosphorylation of ERK1 and ERK2 in HCT116 colon cancer cells was determined by Western blotting. Similar results were observed from two independent experiments.

[3] = test system: HCT116 cells (shMock, shODC, shODC+ODC); test: growth of shMock, shODC and shODC+ODC HCT116 cells; assay type: cell-based
Description: FIGS. 4A-4B. The anti-cancer activity exerted by herbacetin is dependent on ODC expression. (a) The effect of herbacetin on HCT116 colon cancer cell growth was assessed in shMock, shODC and shODC cells with rescued ODC expression. Cells were incubated for 72 h and growth was determined by MTS assay. (b) The effect of herbacetin on anchorage independent HCT116 colon cancer cell growth was assessed inshMock, shODC and shODC cells with rescued ODC expression. Cells were incubated in 0.3% agar for 3 weeks and colonies were counted using a microscope and the Image-Pro PLUS (v.6) computer software program. Data are represented as means±S.D. of triplicate values. The asterisk (*) indicates a significant effect (p<0.05) of herbacetin or DFMO compared to untreated controls.
The lentiviral expression vectors, including pLKO.1-shODC and packaging vectors, including pMD2.0G and psPAX, were purchased from Addgene Inc. (Cambridge, Mass.). […] The transfection medium was changed at 4 h after transfection and then cells were cultured for 36 h. The viral particles were harvested by filtration using a […] syringe filter and then combined with 8 μg/ml of polybrane (Millipore, Billerica, Mass.) and infected into 60% confluent HCT-116 cells overnight. The cell culture medium was replaced with fresh complete growth medium for 24 h and then cells were selected with 1.5 μg/ml of puromycine for 36 h. The selected cells were used for experiments.

[4] = test system: JB6 epidermal cells; test: TPA-induced JB6 cell transformation; assay type: cell-based, mouse; details: 2 weeks
Description: as §1

[5] = test system: activator protein-1 (AP-1); test: TPA-induced AP-1 reporter activity in JB6 cells; assay type: cell-based, mouse; details: JB6 cells pre-treated 2 h, then TPA 48 h
Description: as §1, with “Data are represented as means±S.D. of triplicate values from three independent experiments and the asterisk (*) indicates a significant (p<0.05) effect of herbacetin or DFMO compared to untreated or TPA-treated controls.” left out, “Similar results were observed from two independent experiments.” left out
We determined whether herbacetin affected the reporter activity of the MAP kinase target transcription factor, activator protein-1 (AP-1), in HCT116 cells or JB6 cells stimulated with TPA. […] AP-1 reporter activity was then measured (FIG. 3f, g) and the activity was attenuated by herbacetin in colon cancer cells and in TPA-activated JB6 cells. […]

[6] = test system: HCT116 colon cancer cells; test: cDNA microarray of HCT116 colon cancer cells; assay type: cell-based; details: HCT116, 1 or 2 days herbacetin
Description: FIGS. 7A-7D. Profiling of gene expression in HCT116 colon cancer cells treated with herbacetin 1 or 2 days was assessed by microarray. […] (d) RT-PCR validation of differentially expressed genes.
RNA samples from cells treated or not treated for 1 or 2 days with herbacetin were used. Data were analyzed using hierarchical clustering and the DAVID database as previously described (Sturn, A., Quackenbush, J. & Trajanoski, Z. Genesis: cluster analysis of microarray data. Bioinformatics 18, 207-208 (2002); Huang da, W., Sherman, B. T. & Lempicki, R. A. Systematic and integrative analysis of large gene lists using DAVID bioinformatics resources. Nat Protoc 4, 44-57 (2009)).

[7] = herbacetin 0.4 or 2 mg/kg, DFMO 100 mg/kg, 3 times/week for 8 weeks, vs vehicle

O=c1c(O)c(-c2ccc(O)cc2)oc2c(O)c(O)cc(O)c12 [herbacetin, 3,5,7,8,4′-Pentahydroxyflavone]
anemia (bloody stools) ([1]; 0.4 or 2 mg/kg, 8 weeks): seemed to reduce anemia | tolerability: signs of toxicity, body weight loss ([1]; 8 weeks treatment): without overt signs of toxicity or significant body weight loss | polyp number [1, 7]: significantly suppressed | polyp size [1, 7]: significantly suppressed | overall appearance of mice ([1]; vs vehicle- or DFMO-treated mice): appeared healthier | cell proliferation and anchorage independent colony formation [2]: decrease cell proliferation and anchorage independent colony formation | inhibitory effect on anchorage-dependent and -independent growth of shODC cells ([3]; shODC vs shMock HCT116 cells): resistance to herbacetin; also recorded: resistant | sensitivity of shODC cells with rescued ODC expression ([3]; shODC+ODC HCT116 cells): restored; also recorded: regained sensitivity | inhibition of colony growth after re-introduction of ODC into sh-ODC knockdown cells ([3]; shODC+ODC HCT116 cells, soft agar): restored sensitivity | TPA-induced neoplastic transformation of JB6 epidermal cells [4]: markedly suppressed | AP-1 reporter activity [5]: attenuated | gene expression [6]: significantly altered genes involved in proliferation, cell cycle, apoptosis and metabolic processes
